The target of test [1] is récepteurs de benzodiazépine. Nature of the test: Benzodiazepine receptor binding (FRB), method of GB 2 128 989. The conditions noted are these: in vitro benzodiazepine receptor binding; type of value not stated; read-out: FRBnM. The source says: La recherche de la fixation aux récepteurs de benzodiazépine (FRB) est réalisée par le procédé décrit dans GB 2 128 989.
The test system of test [2] is récepteurs de benzodiazépine. Nature of the test: In vivo binding to benzodiazepine receptors, method of Goeders and Kuhar, Life Sciences (1985) 37 345. The source says: La mesure de la fixation in vivo aux récepteurs de benzodiazépine est réalisée selon le procédé décrit par Goeders N.E. and Kuhar M J, Life Sciences (1985) 37 345.

With `CCOC(=O)c1ncn2c1CN(C)C(=O)c1c(F)ccc(F)c1-2` [EXEMPLE 1E, 7,10-difluoro-5,6-dihydro-5-méthyl-6-oxo-4H-imidazo [1,5-a] [1,4] benzodiazépine-3-carboxylate d'éthyle], the IC50 in test [1] is 174 nM. Also, the “Fixation in vivo DE50 mg/pk ip” value in test [2] is given as 1,1 mg/pk.

On to `CCOC(=O)c1ncn2c1CN(C)C(=O)c1c(F)c(F)c(F)c(F)c1-2` [EXEMPLE 1G, 5,6-dihydro-5-méthyl-6-oxo-7,8,9,10-tétrafluoro-4H-imidazo [1,5-a] [1,4] benzodiazépine-3-carboxylate d'éthyle], for which, in test [1], the IC50 amounted to 7500 nM. In addition, in test [2], the “Fixation in vivo DE50 mg/pk ip” value came out at 100 mg/pk.

Consider `CCOC(=O)c1ncn2c1CN(C)C(=O)c1cccc(N)c1-2` [EXEMPLE 6, 5,6-dihydro-10-amino-5-méthyl-6-oxo-4H-imidazo [1,5-a] [1,4] benzodiazépine-3-carboxylate d'éthyle], for which the IC50 in test [1] stood at 966 nM.

As to `CCOC(=O)c1ncn2c1CN(C)C(=O)c1cccc(F)c1-2` [EXEMPLE 1D, 5,6-dihydro-10-fluoro-5-méthyl-6-oxo-4H-imidazo [1,5-a] [1,4] benzodiazépine-3-carboxylate d'éthyle], the IC50 in test [1] came to 410 nM. Besides, the “Fixation in vivo DE50 mg/pk ip” value in test [2] amounted to 21 mg/pk.

On to `CCOC(OCC)c1ncn2c1CN(C)C(=O)c1c(Cl)cccc1-2` [EXEMPLE 5, 7-chloro-3-diethoxyméthyl-5,6-dihydro-5-méthyl-4H-imidazo [1,5-a] [1,4] benzodiazépine-6(4H)-one], for which the IC50 in test [1] amounted to 339 nM. The “Fixation in vivo DE50 mg/pk ip” value in test [2] is 2,1 mg/pk.

Regarding `CN1Cc2c(C(=O)C3CC3)ncn2-c2cccc(C(F)(F)F)c2C1=O` [EXEMPLE 3C, 5,6-dihydro-5-méthyl-6-oxo-7-trifluorométhyl-4H-imidazo [1,5-a] [1,4] benzodiazépine-3-yl-cyclopropylméthanone], the IC50 in test [1] was determined as 9.4 nM. The “Fixation in vivo DE50 mg/pk ip” value in test [2] was 0,05 mg/pk.

For `CN1Cc2c(C(=O)C3CC3)ncn2-c2cccc(Cl)c2C1=O` [EXEMPLE 3B, 7-chloro-5,6-dihydro-5-méthyl-6-oxo-4H-imidazo [1,5-a] [1,4] benzodiazépine-3-yl-cyclopropylméthanone], the IC50 in test [1] was found to be 7.7 nM.

In the case of `CN1Cc2c(C(=O)C3CC3)ncn2-c2cccc(F)c2C1=O` [EXEMPLE 3D, 5,6-dihydro-7-fluoro-5-méthyl-6-oxo-4H-imidazo [1,5-a] [1,4] benzodiazépine-3-yl-cyclopropylméthanone], the IC50 in test [1] is 27 nM.

Regarding `O=C1NCc2c(C(=O)C3CC3)ncn2-c2ccccc21` [EXEMPLE 4, 5,6-dihydro-6-oxo-4H-imidazo [1,5-a] [1,4] benzodiazépine-3-yl-cyclopropylméthanone], the IC50 in test [1] was found to be 582 nM.
